# In patent US12508265B2, “Methods and compositions for reducing radiation induced toxicity” (Tosk, Inc., priority 2018, dated 2025):
# Like-named read-outs stand apart in the source and are kept apart here.
# What was measured:
# [1] = test system: surviving regenerating intestinal crypts; assay: Small intestinal crypt survival in murine total-body irradiation (TBI) model of intestinal mucositis; format: in vivo, Mouse (Mus musculus) C57BL6; settings: 12 Gy
# Source text: The aim of the study whose results are provided in FIG. 2-6 was to determine the effect of TK-112690 on small intestinal crypt survival, in a murine total-body irradiation (TBI) model of intestinal mucositis.
# • Animal Species: Mouse (Mus musculus) • Strain/substrain: C57BL6 (negative for Klebsiella oxytoca) • Source: Jackson Laboratories, MP-14, Bar Harbour, Me 04609, USA • Total animals: 40 males plus 5 spares • Body weight range: 18 to 25 g at start of treatment • Animal ages: 10 to 12 weeks at start of treatment • Housing: Animals were individually housed in rodent polycarbonated bins with bedding (irradiated Teklad sani chips) equipped with water bottles. Following group assignment, all cages were clearly labeled with a color-coded cage card indicating at least the study number and animal number. • Animal Identification: Each animal was individually identified using a permanent marker. • Group Animal Numbers: Each animal was given a four-number identification code. The first number corresponds to the respective dose group (1-4). The second number refers to whether the animal is the original animal, for instance the number 0, or a replacement, for instance 1, The third and fourth numbers identify the animal's rank within each group. • Room Environment: The animal room environment was set to maintain a temperature of 21±3° C., a relative humidity of 50±20%; and a light dark cycle of 12 hours light/12 hours dark, except during Study Plan-designated procedures. • Diet/Water: A standard certified commercial chow (Envigo Teklad Certified Irradiated Global Rodent Diet #2918C) was provided to the animals ad libitum except during designated procedures. Treats or fruits/vegetables were provided as part of the animal enrichment program. Concentrations of the contaminants (e.g., heavy metals, aflatoxin, organophosphate and chlorinated hydrocarbons) were routinely measured by the manufacturers. Acidified (pH between 2.75 and 3.25) municipal tap water (which had been exposed to ultraviolet light and purified by reverse osmosis) was provided to all animals ad libitum, except during designated procedures, via water bottles. Water bottles were changed at least every 3 days prior to irradiation and every 2 days after irradiation. Acidified water was changed every day after irradiation. During transportation and irradiation, animals were provided with food and water gel packs. Animals received water gel packs at least 2 days before transportation to acclimate to this type of hydration supplement and this procedure continued until necropsy. In addition, wetted food was provided to the animals on the bottom of the bins from Day 1 to the day of necropsy. • Acclimation: An acclimation period of at least 14 days was allowed between receipt of the animals and the start of dosing to accustom the animals to the laboratory environment. • Animal Assignment: During the acclimation period, animals were separately assigned to dose groups by a randomizing stratification system based on body weights. For logistical reasons, the animals were assigned to replicate subgroups, which may initiate dosing on different days.
# The test item and reference item/vehicle are administered by intraperitoneal injection (ip) or oral gavage (po) 1.5 to 2 hour prior and 4 hours post irradiation and then twice daily (12 hours apart) for 4 consecutive days (Days 2 to 5), as shown below: […]
# [2] = format: in vivo; settings: TK-112690 60 mg/kg ip or 240 mg/kg po bid plus uridine 60 mg/kg vs PBS; 12 Gy; ip and po combined; p=0.012
# Source text: • Animal Species: Mouse (Mus musculus) • Strain/substrain: C57BL6 (negative for Klebsiella oxytoca) • Source: Jackson Laboratories, MP-14, Bar Harbour, Me 04609, USA • Total animals: 40 males plus 5 spares • Body weight range: 18 to 25 g at start of treatment • Animal ages: 10 to 12 weeks at start of treatment • Housing: Animals were individually housed in rodent polycarbonated bins with bedding (irradiated Teklad sani chips) equipped with water bottles. Following group assignment, all cages were clearly labeled with a color-coded cage card indicating at least the study number and animal number. • Animal Identification: Each animal was individually identified using a permanent marker. • Group Animal Numbers: Each animal was given a four-number identification code. The first number corresponds to the respective dose group (1-4). […] Concentrations of the contaminants (e.g., heavy metals, aflatoxin, organophosphate and chlorinated hydrocarbons) were routinely measured by the manufacturers. […]
# Mortality checks were recorded concomitantly with the cage-side observations (see below for clinical signs), during all phases of the study. […]
# [3] = Plasma concentration profile over 8 hours in mice (LC/MS); format: in vivo, CD-1 Female Mice; settings: mouse plasma; for half-life: female, CD-1, read-out: Elimination half-life (converted)
# Method: FIG. 3 depicts a set of data expressing plasma concentration profile over 8 hours in mice administered either 60 mg/kg of TK-112690 ip or 240 mg/kg po by gavage. Plasma samples from 3 animals/timepoint were analyzed. CD-1 Female Mice (n=3) were dosed with either 60 (ip) or 240 (po) mg/kg TK-112690 in PBS. Blood samples were obtained at the designated timepoints, and the samples analyzed for drug using LC/MS.
smiles,measurement,setting,value
Cc1cn2c(nc1=O)O[C@H]1[C@H](O)[C@@H](CO)O[C@H]12 [TK-112690],"number of surviving intestinal crypts in the jejunum, Z scores","[1]; TK-112690 60 mg/kg ip bid plus uridine 60 mg/kg vs PBS, p=0.029",ameliorates the mucosal damage in the jejunum
same,"number of surviving intestinal crypts in the jejunum, Z scores","[1]; TK-112690 60 mg/kg ip or 240 mg/kg po bid (combined) plus uridine 60 mg/kg vs PBS, p=0.007",minimizes the mucosal damage in the jejunum
same,"number of surviving intestinal crypts (jejunum, duodenum, ileum), Z scores","[1]; TK-112690 60 mg/kg ip or 240 mg/kg po bid plus uridine 60 mg/kg vs PBS, p=0.03",lessens the mucosal damage associated with radiation treatment
same,"number of surviving intestinal crypts in the duodenum, Z scores","[1]; TK-112690 60 mg/kg ip or 240 mg/kg po bid plus uridine 60 mg/kg vs PBS, p=0.046",ameliorates the mucosal damage in the duodenum
same,"number of surviving intestinal crypts in the jejunum, Z scores","[1]; TK-112690 240 mg/kg po bid plus uridine 60 mg/kg vs PBS, p=0.041",ameliorates the mucosal damage in the jejunum
same,difference in body weight between pre-treatment and day 6 (Z scores),[2],"modest, highly statistically significant (p=0.012) protection from weight loss"
same,AUC0→Last,[3]; 60 mg/kg ip in PBS,Approximately 30 (micrograms/mL)*hour
same,AUC0→Last,[3]; 240 mg/kg po by gavage in PBS,~40 (micrograms/mL)*hour
same,half-life,[3]; 60 mg/kg ip in PBS,~2.5 h
same,half-life,[3]; 240 mg/kg po by gavage in PBS,~2.5 h
